This is an account of results in patent US6642226B2, “Substituted phenyl-piperidine methanone compounds” (Hoffman-La Roche Inc., priority 2001, dated 2003).

One series has as its target T1, human NK1 receptor (Homo sapiens, UniProt P25103).
T1 construct: expressed in transfected cells; host or cells: CHO cells, Semliki virus expression system; membrane suspension
The series can be described thus: NK1 receptor binding, [3H]substance P displacement. To be noted: human NK1 receptors in CHO cells, [3H]substance P 0.6 nM; for Ki: read-out: pKi (affinity to the NK-1 receptor) (converted). On the procedure:
The affinity of test compounds for the NK1 receptor was evaluated at human NK1 receptors in CHO cells infected with the human NK1 receptor (using the Semliki virus expression system) and radiolabelled with [^3H]substance P (final concentration 0.6 nM). Binding assays were performed in HEPES buffer (50 mM, pH 7.4) containing BSA (0.04%) leupeptin (8 μg/ml), MnCl2 (3 mM) and phosphoramidon (2 μM). Binding assays consisted of 250 μl of membrane suspension (1.25×10^5 cells/assay tube), […] of buffer of displacing agent and 125 μl of [^3H]substance P. Displacement curves were determined with at least seven concentrations of the compound. The assay tubes were incubated for 60 min at room temperature after which time the tube contents were rapidly filtered under vacuum through GF/C filters presoaked for 60 min with PEI (0.3%) with 2×2 ml washes of HEPES buffer (50 mM, pH 7.4). The radioactivity retained on the filters was measured by scintillation counting. All assays were performed in triplicate in at least 2 separate experiments.

Series [1] is described as follows: Solubility at pH 6.5 and pH 4.3 (water-solubility). The note with it: water (aqueous medium; buffer not named).

In brackets after ≈: the same amount, converted by molar mass.

T1 sequence (P25103 whole entry): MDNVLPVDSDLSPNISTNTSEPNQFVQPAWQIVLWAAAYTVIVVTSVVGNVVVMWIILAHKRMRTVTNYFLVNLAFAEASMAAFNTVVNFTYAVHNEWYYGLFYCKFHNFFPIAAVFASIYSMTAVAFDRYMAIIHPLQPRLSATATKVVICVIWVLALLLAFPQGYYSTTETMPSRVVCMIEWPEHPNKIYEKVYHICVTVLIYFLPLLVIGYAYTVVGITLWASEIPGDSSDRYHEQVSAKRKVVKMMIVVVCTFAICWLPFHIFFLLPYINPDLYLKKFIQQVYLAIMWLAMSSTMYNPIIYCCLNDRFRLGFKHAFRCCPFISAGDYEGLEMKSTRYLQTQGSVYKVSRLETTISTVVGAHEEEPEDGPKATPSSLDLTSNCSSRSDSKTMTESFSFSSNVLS

Turning to `CN1CCN([C@H]2CCN(C(=O)c3cc(C(F)(F)F)cc(C(F)(F)F)c3)C[C@H]2c2ccccc2)CC1` (racemic) [Example 27, Rac-cis-(3,5-Bis-trifluoromethyl-phenyl)-[4-(4-methyl-piperazin-1-yl)-3-phenyl-piperidin-1-yl]-methanone], the Ki at human NK1 receptor was 3.09 nM. Moreover, the solubility in series [1] (pH 4.3, aqueous buffer) is over 8400 µg/mL; in series [1] (pH 6.5, aqueous buffer) it was 910 µg/mL (≈ 1820 µM).
Regarding `O=C(c1cc(C(F)(F)F)cc(C(F)(F)F)c1)N1CC[C@H](N2CCNCC2)[C@H](c2ccccc2)C1` (racemic) [Example 34, Rac-cis-(3,5-Bis-trifluoromethyl-phenyl)-(3-phenyl-4-piperazin-1-yl-piperidin-1-yl)-methanone], in series [1] (pH 4.3, aqueous buffer), the solubility was over 3500 µg/mL.
Turning to `O=C(c1cc(C(F)(F)F)cc(C(F)(F)F)c1)N1CC[C@H](N2CCN(CC3CC3)CC2)[C@H](c2ccccc2)C1` (racemic) [Example 36, Rac-cis-(3,5-Bis-trifluoromethyl-phenyl)-[4-(4-cyclopropylmethyl-piperazin-1-yl)-3-phenyl-piperidin-1-yl]-methanone], the Ki at human NK1 receptor is 1.26 nM. The molecule also registered a solubility in series [1] (pH 4.3, aqueous buffer) of over 7500 µg/mL.
Consider `CN1CCN([C@H]2CCN(C(=O)c3cc(C(F)(F)F)cc(C(F)(F)F)c3)C[C@H]2c2ccc(F)cc2)CC1` (racemic) [Example 45, Rac-cis-(3,5-Bis-trifluoromethyl-phenyl)-[3-(4-fluoro-phenyl)-4-(4-methyl-piperazin-1-yl)-piperidin-1-yl]-methanone], for which the solubility in series [1] (pH 4.3, aqueous buffer) turned out to be 2400 µg/mL (≈ 4640 µM); in series [1] (pH 6.5, aqueous buffer), 1000 µg/mL (≈ 1930 µM).
Take `O=C(c1cc(C(F)(F)F)cc(C(F)(F)F)c1)N1CCC(N2CCC(O)CC2)C(c2ccc(Cl)cc2)C1` (racemic) [Example 63, Rac-cis-(3,5-Bis-trifluoromethyl-phenyl)-[3′-(4-chloro-phenyl)-4-hydroxy-[1,4′]bipiperidinyl-1′-yl]-methanone]: the Ki at human NK1 receptor is 2.14 nM. Also, the solubility in series [1] (pH 4.3, aqueous buffer) stood at 1000 µg/mL (≈ 1870 µM); in series [1] (pH 6.5, aqueous buffer) it was 780 µg/mL (≈ 1460 µM).
Consider `Cc1ccc(C2CN(C(=O)c3cc(C(F)(F)F)cc(C(F)(F)F)c3)CCC2N2CCN(CC3CC3)CC2)cc1` (single isomer, unassigned; (-)) [Example 102, (−)-4-(3,5-Bis-trifluoromethyl-phenyl)-[4-(4-cyclopropylmethyl-piperazin-1-yl)-3-p-tolyl-piperidin-1-yl]-methanone], for which the “pKi (affinity to the NK-1 receptor)” value on human NK1 receptor was found to be 9.28. Further, for the setting “pH 4.3”, the “Solubility at pH 4.3” value stood at 5.5 mg/mL. Besides, the “Solubility at pH 6.5” value (pH 6.5) is 0.43 mg/mL.
Consider `Cc1ccc(C2CN(C(=O)c3cc(C(F)(F)F)cc(C(F)(F)F)c3)CCC2N2CCN(C(=O)N3CCOCC3)CC2)cc1` (single isomer, unassigned; (-)) [Example 104, (−)-(3,5-Bis-trifluoromethyl-phenyl)-{4-[4-(morpholine-4-carbonyl)-piperazin-1-yl]-3-p-tolyl-piperidin-1-yl}-methanone], for which, at human NK1 receptor, the Ki was 2.34 nM.
On to `Cc1ccc(C2CN(C(=O)c3cc(C(F)(F)F)cc(C(F)(F)F)c3)CCC2N2CCN(C3CC3)CC2)cc1` (single isomer, unassigned; (-)) [Example 110, (−)-(3,5-Bis-trifluoromethyl-phenyl)-[4-(4-cyclopropyl-piperazin-1-yl)-3-p-tolyl-piperidin-1-yl]-methanone], for which, at human NK1 receptor, the Ki is 1.05 nM.
For the molecule `Cc1ccc(C2CN(C(=O)c3cc(C(F)(F)F)cc(C(F)(F)F)c3)CCC2N2CCN(C)CC2)cc1` (single isomer, unassigned; (-)) [Example 111, (−)-(3,5-Bis-trifluoromethyl-phenyl)-[4-(4-methyl-piperazin-1-yl)-3-p-tolyl-piperidin-1-yl]-methanone], the Ki on human NK1 receptor is 0.457 nM.
Regarding `O=C(c1cc(C(F)(F)F)cc(C(F)(F)F)c1)N1CCC(N2CCN(CC3CC3)CC2)C(c2ccc(Cl)cc2)C1` (single isomer, unassigned; (-)) [Example 113, (−)-(3,5-Bis-trifluoromethyl-phenyl)-[3-(4-chloro-phenyl)-4-(4-cyclopropylmethyl-piperazin-1-yl)-piperidin-1-yl]-methanone], the Ki at human NK1 receptor was 0.363 nM.
With `O=C(c1cc(C(F)(F)F)cc(C(F)(F)F)c1)N1CCC(N2CCN(CC3CC3)CC2)C(c2ccccc2)C1` (single isomer, unassigned; (-)) [Example 114, (−)-(3,5-Bis-trifluoromethyl-phenyl)-[4-(4-cyclopropylmethyl-piperazin-1-yl)-3-phenyl-piperidin-1-yl]-methanone], the Ki at human NK1 receptor was 0.363 nM.
Consider `O=C(c1cc(C(F)(F)F)cc(C(F)(F)F)c1)N1CCC(N2CCN(CCO)CC2)C(c2ccccc2)C1` (single isomer, unassigned; (-)) [Example 115, (−)-(3,5-Bis-trifluoromethyl-phenyl)-{4-[4-(2-hydroxy-ethyl)-piperazin-1-yl]-3-phenyl-piperidin-1-yl}-methanone], for which the Ki at human NK1 receptor was 0.912 nM.

For orientation: solubility means how much of the substance goes into solution per volume. Read a high solubility as much dissolved substance. In general, Solubility refers to the dissolved amount per volume that the medium holds.
